Oligonucleotides are written 5' to 3', each unit as a sugar letter and its base; * is a phosphorothioate linkage, no mark a phosphodiester; rarer units and linkages stand in square brackets, end groups in braces. Plain capitals give the bases only. d = 2'-deoxy (DNA)
Tested on: Cy5 5'-labelled acpP target RNA (40 nt)
Assay: Electrophoretic mobility shift assay (EMSA)
Format: binding, Salmonella enterica
Conditions: unconjugated ASO; ASO:RNA 1.25:1 and 2.5:1, 30 min RT, native 15 % PAGE
Method: The electrophoretic mobility shift (EMSA) assay was performed with a Cy5 5’-labelled RNA (purchased from Eurofins) encompassing the sequence spanning nucleotides −20 to +20 of acpP relative to the translation start codon. For annealing, TM buffer (10 mM Tris-HCl, 50 mM MgCl2) was used. First, 20 µM RNA was denatured by incubation at 95 °C for 5 min followed by placement on ice. Then 1 µL of RNA was added to PCR tubes containing 8 µL of water. To this 1 µL of ASOs at the indicated concentrations (25 µM or 50 µM) were added to adjust ASO:RNA ratios of 1.25:1 and 2.5:1. As untreated negative control water was added instead of ASO, while a scrambled PNA sequence served as sequence-unspecific negative control (Figure 2 and Figure S2). These mixtures were incubated for 30 min at room temperature (RT), followed by the addition of 10 µL 2x Gel Loading (GL) buffer for subsequent loading on native 15 % PAA RNA gel without urea (20 µL/sample; 6 µL of a 50 bp DNA marker + 14 µL 1x GL). The gel was run at 100-120 V for 2-3 h, concomitantly stained with ethidium bromide for 15 min and imaged on Geldoc (Isogen Life Science B.V., De Meern, the Netherlands).

## DNA-PTO: 10mer phosphorothioate-modified DNA antisense oligomer, sequence CTCATACTCT, targeting acpP (antisense dC*dT*dC*dA*dT*dA*dC*dT*dC*dT)
  Hybridization to target RNA (band shift): did not interact with the target mRNA

Reference: article doi:10.1101/2023.07.11.548539v1, “A side-by-side comparison of peptide-delivered antisense antibiotics employing different nucleotide mimics” (bioRxiv, 2023)
